Test results taken from BindingDB's records for patent USRE47740 (Syntrix Biosystems Inc., 2019).

Target: T1, C-X-C chemokine receptor type 2 (Homo sapiens, UniProt P25025)
T1 sequence (P25025 whole entry): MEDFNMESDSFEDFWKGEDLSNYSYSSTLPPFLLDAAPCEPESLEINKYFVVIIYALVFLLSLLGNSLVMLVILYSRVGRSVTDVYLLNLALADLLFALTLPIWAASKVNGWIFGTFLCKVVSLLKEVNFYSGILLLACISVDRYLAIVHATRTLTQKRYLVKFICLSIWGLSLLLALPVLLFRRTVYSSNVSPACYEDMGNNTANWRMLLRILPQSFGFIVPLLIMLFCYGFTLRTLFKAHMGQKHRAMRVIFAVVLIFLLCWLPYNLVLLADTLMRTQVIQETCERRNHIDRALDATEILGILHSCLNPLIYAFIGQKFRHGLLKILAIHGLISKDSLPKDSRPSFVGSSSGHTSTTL
Experiment: In Vitro Inhibition of Intracellular Calcium Release
Experimental: Briefly, human neutrophils were suspended in HBSS− (without Ca2+ and Mg2+) containing 10 mM HEPES and FLIPR Calcium 3 dye (3.1×10^7 cells in total volume 1.7 mL). Cells were aliquoted (200 μL of the cell suspension per tube, 8 tubes total) and 2 μL of compound 9 (with appropriate dilutions) were added to each of 6 tubes. The tested concentrations of compound 9 were 156 nM, 312 nM, 625 nM, 1250 nM, 2500 nM and 5000 nM. As controls, 2 μL of DMSO (1% final concentration) were added to 2 other tubes. Cells were incubated for 30 min at 37° C. […] The cell suspension was aliquoted into a 96-well Reading Plate (Corning) in a volume of 90 μL (10^5 cells/well). […] After 15 sec of reading the basal level of fluorescence by FlexStation II, 10 μL of GROα or HBSS− were automatically transferred from the Compound Plate into the Reading Plate (final concentration of GROα was 25 nM). Changes in fluorescence were monitored (λex=485 nm, λem=525 nm) every 5 s for 240 to 500 s at room temperature.The maximum change in fluorescence, expressed in arbitrary units over baseline (Max-Min), was used to determine the GROα response. The effect of each compound on the GROα response was normalized and expressed as a percent of the DMSO control, which was designated as 100% response. […]

CC1(C)OB(c2ccccc2CNc2ccc(C(=O)Nc3ccc(F)cc3)cn2)OC1(C)C [USRE47740, Compound 7] showed an IC50 of 1.5 µM.
